Structures can show the parent of a compound that is named as a salt.
biological target: Steroidogenic factor 1 (Homo sapiens, UniProt Q13285); experiment: inhibition of SF-1 LBD-driven luciferase – cell-based, CHO-K1, Gal4-SF-1 LBD, luciferase luminescence, counter-screen for RORA inhibitor project, dose response (AID 611); details: not given
Sequence (Q13285 whole entry, the tested form may be a part): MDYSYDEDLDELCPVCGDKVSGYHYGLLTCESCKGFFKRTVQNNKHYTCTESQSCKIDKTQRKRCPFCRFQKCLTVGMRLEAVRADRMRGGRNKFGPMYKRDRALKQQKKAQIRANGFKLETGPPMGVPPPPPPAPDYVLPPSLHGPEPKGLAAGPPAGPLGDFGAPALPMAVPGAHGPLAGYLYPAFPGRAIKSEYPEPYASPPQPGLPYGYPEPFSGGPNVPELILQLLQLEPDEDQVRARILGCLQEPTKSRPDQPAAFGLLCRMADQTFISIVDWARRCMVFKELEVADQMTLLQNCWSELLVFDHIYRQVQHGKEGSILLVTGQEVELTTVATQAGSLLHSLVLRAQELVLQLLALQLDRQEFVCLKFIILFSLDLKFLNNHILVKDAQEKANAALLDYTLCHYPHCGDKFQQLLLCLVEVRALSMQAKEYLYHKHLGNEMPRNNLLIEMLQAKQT

SMILES | IC50
Cc1ccnc(NC(=O)CCCOc2cc(=O)n(C)c3ccccc23)c1 [4-(1-methyl-2-oxidanylidene-quinolin-4-yl)oxy-N-(4-methylpyridin-2-yl)butanamide] | 8.98 µM
COc1ccc(-c2cc(C(F)(F)F)nc(S(C)(=O)=O)n2)cc1OC [4-(3,4-dimethoxyphenyl)-2-methylsulfonyl-6-(trifluoromethyl)pyrimidine] | 7.15 µM
COC(=O)c1ccc(-c2nc(-c3cccs3)no2)cc1 [4-(3-thiophen-2-yl-1,2,4-oxadiazol-5-yl)benzoic acid methyl ester] | > 3.67 µM
CCOc1ccc(-c2cc(CCCC(=O)NCCc3ccc(OC)c(OC)c3OC)no2)cc1 [4-(5-p-phenetylisoxazol-3-yl)-N-[2-(2,3,4-trimethoxyphenyl)ethyl]butyramide] | 6.37 µM
Cc1ccc2[nH]c3c(N4CCCCCC4)ncnc3c2c1 [4-(azepan-1-yl)-8-methyl-5H-pyrimido[5,4-b]indole] | 7.45 µM
CC1CCCCC1NS(=O)(=O)c1ccc(S(=O)(=O)NCc2ccncc2)cc1 (stereo not drawn) [4-N-(2-methylcyclohexyl)-1-N-(pyridin-4-ylmethyl)benzene-1,4-disulfonamide] | 8.38 µM
CCN(C1CCCCC1)S(=O)(=O)c1ccc(S(=O)(=O)NCc2ccncc2)cc1 [4-N-cyclohexyl-4-N-ethyl-1-N-(pyridin-4-ylmethyl)benzene-1,4-disulfonamide] | 9.51 µM
Cc1cccc(-n2ncc3c(N4CCOCC4)ncnc32)c1 [4-[1-(3-methylphenyl)-4-pyrazolo[3,4-d]pyrimidinyl]morpholine] | > 3.67 µM
CCOC(=O)N1CCN(C(=O)C2CCN(c3ncnc4c3sc3cccc(F)c34)CC2)CC1 [4-[1-(9-fluorobenzothiopheno[3,2-d]pyrimidin-4-yl)isonipecotoyl]piperazine-1-carboxylic acid ethyl ester] | 6.51 µM
COc1ccc(OC)c(Nc2nc(-c3ccc(O)c(O)c3)cs2)c1 [4-[2-(2,5-Dimethoxy-phenylamino)-thiazol-4-yl]-benzene-1,2-diol] | 7.17 µM
Cc1ccc(-c2noc(CCCC(=O)Nc3cccnc3)n2)cc1 [4-[3-(4-methylphenyl)-1,2,4-oxadiazol-5-yl]-N-(3-pyridinyl)butanamide] | 8.03 µM
COc1ccc2c(c1)[nH]c1c(N3CCN(Cc4ccc5c(c4)OCO5)CC3)ncnc12 [4-[4-(1,3-benzodioxol-5-ylmethyl)piperazin-1-yl]-7-methoxy-5H-pyrimido[5,4-b]indole] | 7.25 µM
COc1ccccc1-c1cc(C(F)(F)F)nc(S(=O)(=O)CCCC(=O)NC(C)C)n1 [4-[4-(2-methoxyphenyl)-6-(trifluoromethyl)pyrimidin-2-yl]sulfonyl-N-propan-2-yl-butanamide] | 9.35 µM
COc1cccc(N2CCN(c3ncnc4c3[nH]c3ccccc34)CC2C)c1 (stereo not drawn) [4-[4-(3-methoxyphenyl)-3-methyl-1-piperazinyl]-5H-pyrimido[5,4-b]indole] | 4.85 µM
CCOc1ccc(-c2cc(CCCC(=O)NCc3ccco3)no2)cc1 [4-[5-(4-ethoxyphenyl)-1,2-oxazol-3-yl]-N-(furan-2-ylmethyl)butanamide] | > 11 µM
CCOC(=O)N1CCC(NC(=O)C2CCCN(Cc3nc(-c4cccc(Cl)c4)oc3C)C2)CC1 (stereo not drawn) [4-[[1-[[2-(3-chlorophenyl)-5-methyl-oxazol-4-yl]methyl]nipecotoyl]amino]piperidine-1-carboxylic acid ethyl ester] | 6.81 µM
CCN(CC)c1ccc2cc(NC(=O)CCC(=O)O)c(=O)oc2c1 [4-[[7-(diethylamino)-2-keto-chromen-3-yl]amino]-4-keto-butyric acid] | 6.07 µM
CC(=O)c1c(C)[nH]c(C(=O)OCCCCN2C(=O)c3ccccc3C2=O)c1C [4-acetyl-3,5-dimethyl-1H-pyrrole-2-carboxylic acid 4-(1,3-dioxo-2-isoindolyl)butyl ester] | 5.04 µM
CCCCOc1ncnc2c1[nH]c1ccc(F)cc12 [4-butoxy-8-fluoranyl-5H-pyrimido[5,4-b]indole] | 4.2 µM
Cc1ccccc1NC(=O)c1cnc2ccccn2c1=O [4-keto-N-(o-tolyl)pyrido[1,2-a]pyrimidine-3-carboxamide] | > 11 µM
Cc1ccc(-c2cnc(NC(=O)CCC(=O)N3CCCCC3)n2C)cc1 [4-keto-N-[1-methyl-5-(p-tolyl)imidazol-2-yl]-4-piperidino-butyramide] | > 99.1 µM
O=C(NC1CC1)c1ccc(-c2nc3ccccc3s2)s1 [5-(1,3-benzothiazol-2-yl)-N-cyclopropyl-2-thiophenecarboxamide] | 9.53 µM
CCOc1ccc(OCc2ccc(C(=O)OCc3ccccn3)o2)cc1 [5-(4-Ethoxy-phenoxymethyl)-furan-2-carboxylic acid pyridin-2-ylmethyl ester] | > 11 µM
COc1ccccc1-n1nnnc1S(=O)(=O)Cc1ccc(Cl)cc1 [5-(4-chlorobenzyl)sulfonyl-1-(2-methoxyphenyl)tetrazole] | 7.09 µM
Fc1ccc(-c2nnc(NC3=NCCCCC3)o2)cc1 [5-(4-fluorophenyl)-N-(3,4,5,6-tetrahydro-2H-azepin-7-yl)-1,3,4-oxadiazol-2-amine] | > 3.67 µM
Cc1ccc(-c2nnc(Nc3ccccc3)o2)cc1 [5-(4-methylphenyl)-N-phenyl-1,3,4-oxadiazol-2-amine] | > 3.67 µM
Oc1c(CN2CCOCC2)cc(COCc2ccccc2)c2cccnc12 [5-(benzoxymethyl)-7-(morpholinomethyl)quinolin-8-ol] | 5.97 µM
Oc1c(CN2CCCCC2)cc(COCc2ccccc2)c2cccnc12 [5-(benzoxymethyl)-7-(piperidinomethyl)quinolin-8-ol] | 7.58 µM
NCCCCCc1nnc(SCc2ccccc2Cl)o1 [5-[5-[(2-chlorobenzyl)thio]-1,3,4-oxadiazol-2-yl]pentylamine;hydrochloride] | > 99 µM
Oc1c(CN2CCN(c3ccccn3)CC2)cc(Cl)c2cccnc12 [5-chloranyl-7-[(4-pyridin-2-ylpiperazin-1-yl)methyl]quinolin-8-ol] | 6.65 µM

More lines, now with the values ahead:

IC50 | SMILES
4.81 µM | O=c1cc(-c2c(F)c(F)c(F)c(F)c2F)oc2c(F)c(F)c(F)c(F)c12 [5,6,7,8-tetrafluoro-2-(2,3,4,5,6-pentafluorophenyl)-1-benzopyran-4-one]
4.51 µM | COc1ccc(C(=O)Nn2c(SCC(=O)NCC3CCCO3)nc3ccccc3c2=O)cc1 (stereo not drawn) [4-methoxy-N-[4-oxidanylidene-2-[2-oxidanylidene-2-(oxolan-2-ylmethylamino)ethyl]sulfanyl-quinazolin-3-yl]benzamide]
4.35 µM | CCOc1ccc(OCc2cccc(C(=O)N3CCOCC3)c2)cc1 [4-{3-[(4-ethoxyphenoxy)methyl]benzoyl}morpholine]
3.74 µM | O=S(=O)(NCc1ccncc1)c1ccc(Br)s1 [5-bromanyl-N-(pyridin-4-ylmethyl)thiophene-2-sulfonamide]
3.38 µM | Fc1ccc2[nH]c3c(N4CCN(Cc5ccc6c(c5)OCO6)CC4)ncnc3c2c1 [4-[4-(1,3-benzodioxol-5-ylmethyl)-1-piperazinyl]-8-fluoro-5H-pyrimido[5,4-b]indole]
3.34 µM | Cc1ccc(-c2nc(-c3ccccc3)no2)c(Cl)c1 [5-(2-chloranyl-4-methyl-phenyl)-3-phenyl-1,2,4-oxadiazole]
3.29 µM | COc1ccc(C(=O)NC(=O)Nc2cc(C)ccn2)cc1 [4-methoxy-N-[(4-methyl-2-pyridyl)carbamoyl]benzamide]
3.24 µM | COc1ccccc1-c1nnc2sc(-c3ccc(N(C)C)cc3)nn12 [4-[3-(2-methoxyphenyl)-[1,2,4]triazolo[3,4-b][1,3,4]thiadiazol-6-yl]-N,N-dimethyl-aniline]
3.06 µM | Cc1oc(-c2ccc3c(c2)OCCO3)cc1C(=O)O [5-(2,3-dihydro-1,4-benzodioxin-6-yl)-2-methyl-3-furancarboxylic acid]
2.82 µM | COc1ccc(-c2nc(-c3ccccc3)no2)c(OC)c1 [5-(2,4-dimethoxyphenyl)-3-phenyl-1,2,4-oxadiazole]
2.72 µM | COc1ccc(-c2noc(CCCC(=O)O)n2)cc1 [4-[3-(4-methoxyphenyl)-1,2,4-oxadiazol-5-yl]butanoic acid]
2.64 µM | CCOc1ccc(-c2cc(CCCC(=O)NCCCOC)no2)cc1 [4-[5-(4-ethoxyphenyl)-1,2-oxazol-3-yl]-N-(3-methoxypropyl)butanamide]
2.22 µM | Cc1ccc(-c2nc(-c3ccccn3)no2)cc1Cl [5-(3-chloranyl-4-methyl-phenyl)-3-pyridin-2-yl-1,2,4-oxadiazole]
1.44 µM | Clc1ccc(OCCN2CCN(c3ncnc4sccc34)CC2)cc1 [4-[4-[2-(4-chloranylphenoxy)ethyl]piperazin-1-yl]thieno[2,3-d]pyrimidine]
1.05 µM | Cc1ccc(-c2nc(-c3ccccn3)no2)cc1 [5-(4-methylphenyl)-3-(2-pyridinyl)-1,2,4-oxadiazole]
0.846 µM | Clc1ccc(-n2ncc3c(N4CCCCCC4)ncnc32)cc1 [4-(1-azepanyl)-1-(4-chlorophenyl)pyrazolo[3,4-d]pyrimidine]
0.675 µM | COc1cc(CN=O)ccc1OCc1ccc(C(=O)O)cc1 [4-[[4-(hydroximinomethyl)-2-methoxy-phenoxy]methyl]benzoic acid]

same assay, conditions: inactive by the depositor's call

IC50 | SMILES
11.1 µM | Cc1nc2sccn2c1-c1csc(NCc2ccccc2)n1 [4-(6-methyl-5-imidazo[2,1-b]thiazolyl)-N-(phenylmethyl)-2-thiazolamine]
24.4 µM | CCCCN(CCCC)S(=O)(=O)c1ccc(C(=O)Nc2nnc(CSC)o2)cc1 [4-(dibutylsulfamoyl)-N-[5-(methylsulfanylmethyl)-1,3,4-oxadiazol-2-yl]benzamide]
11.6 µM | Cc1ccc(S(=O)(=O)NCc2ccncc2)cc1 [4-Methyl-N-pyridin-4-ylmethyl-benzenesulfonamide]
13.2 µM | COc1ccccc1-c1cc(C(F)(F)F)nc(S(=O)(=O)CCCC(=O)Nc2cc(C)on2)n1 [4-[4-(2-methoxyphenyl)-6-(trifluoromethyl)pyrimidin-2-yl]sulfonyl-N-(5-methyl-1,2-oxazol-3-yl)butanamide]
11.6 µM | Cc1ccc2nc(C(F)(F)F)c(C#N)c(N)c2c1 [4-amino-6-methyl-2-(trifluoromethyl)-3-quinolinecarbonitrile]
12.4 µM | Cc1ccc(S(=O)(=O)Nc2ccc3ncccc3c2)cc1 [4-methyl-N-(6-quinolinyl)benzenesulfonamide]

Source: BindingDB's records for doi:10.7270/Q2PR7TCX (The Scripps Research Institute Molecular Screening Center, 2007)
